Like-named read-outs stand apart in the source and are kept apart here.
Experiments:
[1] = target: T1, PRMT5 (Homo sapiens, UniProt O14744); assay: PRMT5 biochemical IC50 assay with MTA as cofactor; details: PRMT5, MTA as cofactor; read-out: MTA IC50
T1 construct: purchased Viva (custom protein)

[2] = target: T1, PRMT5; assay: PRMT5 biochemical IC50 assay with no cofactor; details: PRMT5, no cofactor
Source text: Table 1 indicates IC50 values (μM) against PRMT5 for exemplary compounds in the presence of SAM as cofactor, with no cofactor, and with MTA as cofactor, respectively (columns 4-6). […] Ki values can be calculated from the IC50 values as described in the Examples section. As detailed in the Examples section, for the assay performed in the presence of SAM, IC50=Ki×1.5 (Ki=IC50/1.5).

[3] = test system: HAP1 MTAP-deleted cell line; assay: Viability assay, MTAP-deleted cell line; format: cell-based
Source text: Table 1 additionally indicates IC50 values in a viability assay for the MTAP-deleted cell line (column 10), indicating the effect of treatment with compound on cell survival.

[4] = test system: HAP1 MTAP-intact cell line; assay: SDMA in-cell western assay, HAP1 MTAP-intact; format: cell-based
Method in brief: (§1)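 Readout: in-cell western detection of SDMA. Cells: HAP1 expressing endogenous MTAP and an MTAP-null HAP1 counterpart. Output: IC50.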

[5] = target: T1, PRMT5; assay: PRMT5 biochemical IC50 assay with SAM as cofactor; details: PRMT5, SAM as cofactor; read-out: SAM IC50
[6] = test system: HAP1 MTAP-deleted cell line; assay: SDMA in-cell western assay, HAP1 MTAP-deleted; format: cell-based
Method in brief: as §1

[7] = Homo sapiens, HAP1, viability assay, MTAP-deleted cell line, read-out: HAP1 MTAP deleted viability
[8] = Homo sapiens, HAP1, SDMA in-cell western, HAP1 MTAP-intact, read-out: MTAP HAP1 intact IC50
[9] = Homo sapiens, HAP1, SDMA in-cell western, HAP1 MTAP-deleted, read-out: HAP 1 MTAP deleted IC50
[10] = IC50 ratio HAP1 MTAP-intact / HAP1 MTAP-deleted, SDMA in-cell western
[11] = Homo sapiens, HAP1, viability IC50, MTAP-deleted cell line, read-out: HAP1 MTAP deleted viability
[12] = Homo sapiens, HAP1, SDMA in-cell western, HAP1 MTAP-deleted, read-out: HAP1 MTAP deleted IC50
[13] = read-out: No Cofactor/ rel IC50
[14] = Homo sapiens, HAP1, viability, HAP1 MTAP-deleted cell line, read-out: HAP1 MTAP deleted viability

T1 sequence (O14744 whole entry): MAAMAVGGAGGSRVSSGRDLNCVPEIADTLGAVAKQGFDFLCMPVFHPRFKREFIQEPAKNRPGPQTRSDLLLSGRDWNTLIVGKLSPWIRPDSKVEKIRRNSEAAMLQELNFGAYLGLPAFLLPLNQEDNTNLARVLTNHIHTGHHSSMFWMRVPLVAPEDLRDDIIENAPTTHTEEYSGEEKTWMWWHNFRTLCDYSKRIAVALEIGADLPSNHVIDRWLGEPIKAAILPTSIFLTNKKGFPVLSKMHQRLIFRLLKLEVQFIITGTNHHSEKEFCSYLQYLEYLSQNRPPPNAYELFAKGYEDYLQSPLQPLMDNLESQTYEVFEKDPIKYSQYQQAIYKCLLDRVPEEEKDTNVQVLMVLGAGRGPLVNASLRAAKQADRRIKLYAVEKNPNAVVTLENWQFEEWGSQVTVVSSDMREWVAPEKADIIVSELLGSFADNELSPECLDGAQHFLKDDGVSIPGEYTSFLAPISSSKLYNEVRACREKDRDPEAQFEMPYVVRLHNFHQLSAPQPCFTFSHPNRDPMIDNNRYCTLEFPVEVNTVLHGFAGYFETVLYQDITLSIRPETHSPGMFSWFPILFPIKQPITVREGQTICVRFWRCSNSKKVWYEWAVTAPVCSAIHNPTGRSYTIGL
T1 sequence (Q9BQA1 whole entry partner): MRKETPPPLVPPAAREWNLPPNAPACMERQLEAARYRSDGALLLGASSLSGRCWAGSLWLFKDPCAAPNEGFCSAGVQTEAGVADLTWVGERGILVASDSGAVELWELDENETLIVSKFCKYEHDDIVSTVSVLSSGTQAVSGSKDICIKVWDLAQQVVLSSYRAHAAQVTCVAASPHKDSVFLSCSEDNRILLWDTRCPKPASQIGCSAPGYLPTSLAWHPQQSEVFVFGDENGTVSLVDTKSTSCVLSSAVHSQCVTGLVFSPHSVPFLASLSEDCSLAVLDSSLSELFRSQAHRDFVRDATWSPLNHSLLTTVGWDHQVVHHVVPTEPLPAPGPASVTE

Structure (SMILES)	IC50 [1]	IC50 ([2]; read-out: No Cofactor/rel IC50)	IC50 [3, 7]	IC50 [4, 8]	IC50 [5]	IC50 [6, 9]	MTAP intact/deleted ratio [6, 10]	IC50 [3, 11]	IC50 [6, 12]	IC50 ([3]; viability assay, HAP1 MTAP-deleted, read-out: HAP1 MTAP deleted viability)	IC50 ([4]; SDMA in-cell western, HAP1 MTAP-intact, read-out: MTAP HAP1 intact IC50)	IC50 ([6]; SDMA in-cell western, HAP1 MTAP-deleted, read-out: HAP1 MTAP deleted IC50)	IC50 [2, 13]	IC50 [3, 14]	IC50 ([3]; Homo sapiens, HAP1, read-out: HAP1 MTAP deleted viability)	IC50 ([4]; Homo sapiens, HAP1, read-out: MTAP HAP1 intact IC50)	IC50 ([6]; Homo sapiens, HAP1, read-out: HAP1 MTAP deleted IC50)	IC50 ([3]; Homo sapiens, HAP1, viability assay, HAP1 MTAP-deleted, read-out: HAP1 MTAP deleted viability)	MTAP intact/deleted ratio ([6]; IC50 ratio HAP1 MTAP-intact vs HAP1 MTAP-deleted, SDMA in-cell western)
C[C@H]1CC[C@H](c2ccc(F)cc2)N(C(=O)C(=O)Nc2cnc(OC(F)(F)F)c(C(N)=O)c2)C1 [Compound 1039, 5-[[2-[(2R,5S)-2-(4-fluorophenyl)-5-methyl-1-piperidyl]-2-oxo-acetyl]amino]-2-(trifluoromethoxy)pyridine-3-carboxamide]	50 to 500 nM	50 to 500 nM	1 to 10 µM	100 to 1000 nM	50 to 500 nM	100 to 1000 nM	C (an IC50 ratio of less than 3 fold)												
Cc1cc(NC(=O)C(=O)N2C[C@H](C)CC[C@H]2c2cccc3[nH]ncc23)cnc1N (racemic) [Compound 690, rac-N-(6-amino-5-methyl-3-pyridyl)-2-[(2S,5R)-2-(1H-indazol-4-yl)-5-methyl-1-piperidyl]-2-oxo-acetamide]	< 50 nM	50 to 500 nM		> 1000 nM	50 to 500 nM	100 to 1000 nM	A (an IC50 ratio greater than or equal to 10 fold)	1 to 10 µM											
C[C@@H]1CC[C@@H](c2ccc3c(c2)CCCN3)N(C(=O)C(=O)Nc2cncc(C(N)=O)c2)C1 (single isomer, unassigned) [Compound 432]	< 50 nM	50 to 500 nM	1 to 10 µM	> 1000 nM	50 to 500 nM		A (an IC50 ratio greater than or equal to 10 fold)		< 100 nM										
[H][C@]1([C@]2([H])C[C@@]3(C[C@H](O)C3)C2)CC[C@H](C)CN1C(=O)C(=O)Nc1cnc(N)c(C)c1 (single isomer, unassigned) [Compound 768]	50 to 500 nM	50 to 500 nM			50 to 500 nM		B (an IC50 ratio greater than or equal to 3 fold but lower than 10 fold)			> 10 µM	> 1000 nM	100 to 1000 nM							
Cc1cc(NC(=O)C(=O)N2C[C@@H](C)CC[C@@H]2c2ccc3sc(CCN4CCOCC4)nc3c2)cnc1N [Compound 1387, N-(6-amino-5-methylpyridin-3-yl)-2-((2R,5S)-5-methyl-2-(2-(2-morpholinoethyl)benzo[d]thiazol-5-yl)piperidin-1-yl)-2-oxoacetamide]	< 50 nM			< 100 nM	50 to 500 nM	< 100 nM	B (an IC50 ratio greater than or equal to 3 fold but lower than 10 fold)						< 50 nM	< 1 µM					
COc1ncc(NC(=O)C(=O)N2C[C@@H](C)CC[C@@H]2c2ccc(O)cc2)cc1C(N)=O (single isomer, unassigned) [Compound 288]	< 50 nM	< 50 nM			50 to 500 nM		A (an IC50 ratio greater than or equal to 10 fold)								< 1 µM	100 to 1000 nM	< 100 nM		
CCc1cc(NC(=O)C(=O)N2C[C@@H](C)CC[C@@H]2c2ccc3sc(CCCN(C)C)nc3c2)cnc1N [Compound 1262, N-(6-amino-5-ethylpyridin-3-yl)-2-((2R,5S)-2-(2-(3-(dimethylamino)propyl)benzo[d]thiazol-5-yl)-5-methylpiperidin-1-yl)-2-oxoacetamide]	< 50 nM			< 100 nM	< 50 nM	< 100 nM	A (an IC50 ratio greater than or equal to 10 fold)						< 50 nM	< 1 µM					
COc1ncc(NC(=O)C(=O)N2C[C@@H](C)CC[C@@H]2c2cc(F)c(F)c(F)c2)cc1C(N)=O (single isomer, unassigned) [Compound 739]	> 500 nM	> 500 nM		> 1000 nM	> 500 nM		B (an IC50 ratio greater than or equal to 3 fold but lower than 10 fold)		> 1000 nM									> 10 µM	
CNC(=O)[C@@H]1CC[C@H](c2ccccc2)N(C(=O)C(=O)Nc2cnc(N)c(C)c2)C1 (racemic) [Compound 253, 1-(2-((6-amino-5-methylpyridin-3-yl)amino)-2-oxoacetyl)-N-methyl-6-phenylpiperidine-3-carboxamide]	50 to 500 nM	> 500 nM	> 10 µM	> 1000 nM	50 to 500 nM		C (an IC50 ratio of less than 3 fold)		> 1000 nM										
CCc1cc(NC(=O)C(=O)N2C[C@@H](C)CC[C@@H]2c2ccc3nn(C4CN(C)C4)cc3c2)cnc1N (racemic) [Compound 1239, N-(6-Amino-5-ethyl-3-pyridyl)-2-oxo-2-[rac-(2R,5S)-5-methyl-2-[2-(1-methylazetidin-3-yl)indazol-5-yl]-1-piperidyl]acetamide]	< 50 nM			100 to 1000 nM	50 to 500 nM	< 100 nM	A (an IC50 ratio greater than or equal to 10 fold)						< 50 nM	< 1 µM					
CC(C)C1CCCCN1C(=O)C(=O)Nc1cncc(C(N)=O)c1 (centres unmarked) [Compound 100, 5-[[2-(2-isopropyl-1-piperidyl)-2-oxo-acetyl]amino]pyridine-3-carboxamide]	50 to 500 nM		> 10 µM	> 1000 nM	50 to 500 nM	100 to 1000 nM	A (an IC50 ratio greater than or equal to 10 fold)						> 500 nM						
Cc1cc([C@@H]2CC[C@@H](C)CN2C(=O)C(=O)Nc2cncc(C(N)=O)c2)ccc1F (racemic) [Compound 131, rac-5-{2-[(2R,5S)-2-(4-Fluoro-3-methylphenyl)-5-methylpiperidin-1-yl]-2-oxoacetamido}pyridine-3-carboxamide]	< 50 nM		1 to 10 µM	> 1000 nM	> 500 nM	< 100 nM	A (an IC50 ratio greater than or equal to 10 fold)						50 to 500 nM						
NC(=O)c1cncc(NC(=O)C(=O)N2C[C@@H](O)CC[C@@H]2c2ccccc2)c1 (racemic) [Compound 349, 5-[[2-[(2R,5S)-5-Hydroxy-2-phenyl-1-piperidyl]-2-oxo-acetyl]amino]pyridine-3-carboxamide]	50 to 500 nM	> 500 nM	> 10 µM	> 1000 nM	> 500 nM		C* (an IC50 ratio of less than 3 fold)		> 1000 nM										
CCc1cc(NC(=O)C(=O)N2C[C@@H](C)CC[C@@H]2c2ccc3[nH]ncc3c2)cnc1N (single isomer, unassigned) [Compound 589]	< 50 nM	< 50 nM		100 to 1000 nM	< 50 nM	< 100 nM	A (an IC50 ratio greater than or equal to 10 fold)	< 1 µM											
CCc1cc(NC(=O)C(=O)N2CC(C)CCC2c2ccc3sc(C4CCN(C)CC4C)nc3c2)cnc1N (racemic) [Compound 1227, N-(6-amino-5-ethyl-3-pyridyl)-2-oxo-2-[rac-(2R,5S)-5-methyl-2-[2-[rac-(3S,4R)-1,3-dimethyl-4-piperidyl]-1,3-benzothiazol-5-yl]-1-piperidyl]acetamide]	< 50 nM	< 50 nM	< 1 µM	< 100 nM	< 50 nM				< 100 nM										A (an IC50 ratio greater than or equal to 10 fold)
CNC(=O)c1ccc([C@H]2CC[C@H](C)CN2C(=O)C(=O)Nc2cncc(C)c2)cc1 (racemic) [Compound 92, N-methyl-4-(5-methyl-1-(2-((5-methylpyridin-3-yl)amino)-2-oxoacetyl)piperidin-2-yl)benzamide]	50 to 500 nM		> 10 µM	> 1000 nM	> 500 nM	> 1000 nM	C (an IC50 ratio of less than 3 fold)						> 500 nM						
C[C@@H]1CN(C(=O)C(=O)Nc2cncc(C(N)=O)c2)C[C@@H]2CCCC[C@@H]21 (racemic) [Compound 541, 5-[[2-[(4S,4aR,8aR)-4-Methyl-3,4,4a,5,6,7,8,8a-octahydro-1H-isoquinolin-2-yl]-2-oxo-acetyl]amino]pyridine-3-carboxamide]	50 to 500 nM	> 500 nM		> 1000 nM	50 to 500 nM	100 to 1000 nM	A (an IC50 ratio greater than or equal to 10 fold)	1 to 10 µM											

Reference: US11999727B2 (Tango Therapeutics, Inc., priority 2020, dated 2024)
